In US20240343722A1 (VIFOR (INTERNATIONAL) AG, priority 2021, published 2024):

Legend:
[1] = target: T1, ferroportin (Fpn) (Homo sapiens, UniProt Q9NP59); test: Inhibition of Ferroportin mediated Iron Export Activity in an Iron Response Assay (BLA reporter, HEK-293 cell line #354); format: cell-based; conditions: HEK-293 cell line #354, BLA reporter blue/green fluorescence ratio, n=37; read-out: EC50 of hepcidin in the iron response assay
T1 construct: expressed in transfected cells; host or cells: HEK-293 cell line #354 (derivative of HEK-293 Tet-ON Advanced)
T1 sequence (Q9NP59 1-571): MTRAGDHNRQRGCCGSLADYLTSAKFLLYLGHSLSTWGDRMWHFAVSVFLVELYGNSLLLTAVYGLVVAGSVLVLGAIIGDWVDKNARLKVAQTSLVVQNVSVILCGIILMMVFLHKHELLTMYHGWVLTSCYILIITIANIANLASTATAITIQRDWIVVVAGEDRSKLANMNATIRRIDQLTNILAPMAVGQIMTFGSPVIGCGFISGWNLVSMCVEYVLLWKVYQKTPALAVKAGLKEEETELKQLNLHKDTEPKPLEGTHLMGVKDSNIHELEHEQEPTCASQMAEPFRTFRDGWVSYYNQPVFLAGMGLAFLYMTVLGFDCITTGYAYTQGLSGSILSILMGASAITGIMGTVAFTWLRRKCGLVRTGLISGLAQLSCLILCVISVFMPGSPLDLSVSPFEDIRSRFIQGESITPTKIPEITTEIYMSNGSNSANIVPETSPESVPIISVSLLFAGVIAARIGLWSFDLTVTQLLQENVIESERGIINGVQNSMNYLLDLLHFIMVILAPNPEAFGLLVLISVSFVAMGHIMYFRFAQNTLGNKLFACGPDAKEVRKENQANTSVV
From the text: Intracellular iron levels are indirectly measured in this assay by monitoring the activity of a beta-lactamase (BLA) reporter gene fused to the human ferritin promoter and the associated iron regulatory element (IRE) contained within the 5′ untranslated region of the ferritin mRNA. Expression of ferroportin (Fpn) in such a cell line leads to iron efflux and lower iron levels as reflected by lower activity of the reporter gene. On the other hand, inhibition of Fpn-mediated iron efflux results in elevated cellular iron levels which is detected as increased reporter gene activity.

[2] = target: T2, ferroportin (Fpn) (Mus musculus, UniProt Q9JHI9); test: Hepcidin Internalization Assay (J774); format: cell-based; conditions: Average (AVE) IC50 of multiple measurements; inhibition of TMR-hepcidin (25 nM) internalization into J774 cells
T2 construct: endogenous in cells; host or cells: J774 mouse macrophage cell line, induced with Fe(III)NTA
T2 sequence (Q9JHI9 1-570): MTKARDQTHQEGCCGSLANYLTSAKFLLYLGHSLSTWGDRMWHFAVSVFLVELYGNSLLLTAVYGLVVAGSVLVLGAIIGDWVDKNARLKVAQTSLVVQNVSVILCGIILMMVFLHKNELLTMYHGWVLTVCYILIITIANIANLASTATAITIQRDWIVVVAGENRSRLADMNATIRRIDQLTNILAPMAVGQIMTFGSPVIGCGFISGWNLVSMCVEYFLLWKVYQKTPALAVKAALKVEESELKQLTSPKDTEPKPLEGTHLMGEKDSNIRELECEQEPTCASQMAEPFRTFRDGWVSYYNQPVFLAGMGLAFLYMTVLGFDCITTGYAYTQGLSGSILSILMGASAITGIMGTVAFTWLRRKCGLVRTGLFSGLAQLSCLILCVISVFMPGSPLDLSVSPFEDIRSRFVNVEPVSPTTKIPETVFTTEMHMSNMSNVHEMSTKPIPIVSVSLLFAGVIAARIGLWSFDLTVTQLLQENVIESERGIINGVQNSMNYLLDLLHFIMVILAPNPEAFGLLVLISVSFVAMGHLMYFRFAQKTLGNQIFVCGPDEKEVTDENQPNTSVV
How it was run: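 Mouse J774 cells; Fpn inhibition read as reduced internalization of TMR-labelled hepcidin, imaged by fluorescence microscopy with Hoechst 33342 co-stain after fixation. IC50 from Sum(Mean) TMR signal fitted to three- or four-parameter log(inhibitor) vs. response, whichever fit better.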

IC50 [2] [nM]	SMILES	EC50 [1] [nM]
–	CC[C@H](C)[C@@H]1NC(=O)[C@@H](NC(=O)[C@@H](NC(=O)[C@@H]2CCCN2C(=O)[C@H](Cc2ccccc2)NC(=O)[C@H](Cc2c[nH]cn2)NC(=O)[C@@H](NC(=O)[C@@H](N)CC(=O)O)[C@@H](C)O)[C@@H](C)CC)CSSC[C@@H](C(=O)N[C@@H](CCCCN)C(=O)N[C@H](C(=O)O)[C@@H](C)O)NC(=O)[C@@H]2CSSC[C@@H]3NC(=O)[C@@H]4CSSC[C@H](NC(=O)[C@H](Cc5ccccc5)NC1=O)C(=O)N[C@@H](CSSC[C@H](NC(=O)[C@H](CCCCN)NC(=O)[C@H](CO)NC(=O)[C@H](CCCNC(=N)N)NC(=O)[C@H](Cc1c[nH]cn1)NC3=O)C(=O)NCC(=O)N[C@@H](CCSC)C(=O)N2)C(=O)NCC(=O)N4 [hepcidin]	~96
4	CCCCn1c(CCNCCc2nc(C(=O)NCc3ncccc3F)co2)nc2ccc(-c3ccccc3)cc21 [Example 41, 2-(2-((2-(1-butyl-6-phenyl-1 H-benzo[d]imidazol-2-yl)ethyl)amino)ethyl)-N-((3-fluoropyridin-2-yl)methyl)oxazole-4-carboxamide]	–
0.8	O=C(NCc1ncccc1F)c1coc(CCNCCc2nc3ccccc3n2CC2CCCCC2)n1 [Example 51, 2-(2-((2-(1-(cyclohexylmethyl)-1H-benzo[d]imidazol-2-yl)ethyl)amino)ethyl)-N-((3-fluoropyridin-2-yl)methyl)oxazole-4-carboxamide]	–
